The target in experiment [1] is CSK (Homo sapiens, UniProt P41240). Description: Nanosyn in vitro kinase profiling: CSK. The class given is biochemical. The following applies: for inhibition at 1 µM: compound at 1 μM. The procedure: (§1) This was confirmed by in vitro profiling against a panel of kinases, with compound 2 only showing potent inhibition of EGFR and Ab1 (Table 2).
(§2) In vitro Kinome Screen. In vitro profiling of compound 2 at 100 nM was conducted by Nanosyn.

The target in experiment [2] is T1, PRKD2 (Homo sapiens, UniProt Q9BZL6).
T1 sequence (Q9BZL6 1-878): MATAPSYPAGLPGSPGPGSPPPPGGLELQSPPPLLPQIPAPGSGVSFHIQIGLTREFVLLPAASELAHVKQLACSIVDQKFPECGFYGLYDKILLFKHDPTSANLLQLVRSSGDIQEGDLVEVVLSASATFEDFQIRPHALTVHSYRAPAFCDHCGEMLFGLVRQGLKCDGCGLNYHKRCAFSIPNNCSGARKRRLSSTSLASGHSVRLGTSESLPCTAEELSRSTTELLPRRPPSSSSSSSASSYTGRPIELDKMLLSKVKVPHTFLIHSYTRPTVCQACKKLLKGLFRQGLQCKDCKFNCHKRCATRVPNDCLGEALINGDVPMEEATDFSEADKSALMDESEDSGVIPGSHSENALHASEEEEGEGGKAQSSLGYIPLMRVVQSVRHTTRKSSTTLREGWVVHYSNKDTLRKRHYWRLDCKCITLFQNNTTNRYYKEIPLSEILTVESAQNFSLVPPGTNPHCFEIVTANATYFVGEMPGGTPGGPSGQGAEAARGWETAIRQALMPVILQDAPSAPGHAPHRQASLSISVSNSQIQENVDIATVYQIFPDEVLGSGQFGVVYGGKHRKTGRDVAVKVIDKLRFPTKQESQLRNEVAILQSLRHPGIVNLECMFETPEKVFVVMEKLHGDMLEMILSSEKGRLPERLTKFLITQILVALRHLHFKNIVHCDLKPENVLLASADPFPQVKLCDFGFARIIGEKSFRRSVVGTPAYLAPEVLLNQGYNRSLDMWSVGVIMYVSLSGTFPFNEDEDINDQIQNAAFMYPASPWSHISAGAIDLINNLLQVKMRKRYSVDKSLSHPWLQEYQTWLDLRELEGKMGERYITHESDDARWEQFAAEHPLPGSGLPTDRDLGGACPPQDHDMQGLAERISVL
Description: Nanosyn in vitro kinase profiling: PRKD2. The experiment is classed as biochemical. Particulars: for inhibition at 1 µM: compound at 1 μM. The protocol:
as §1, §2

Experiment [3] deals with JNK2 (Homo sapiens, UniProt P45984). The experiment can be described thus: Nanosyn in vitro kinase profiling: JNK2. The experiment is classed as biochemical. Particulars: for inhibition at 1 µM: compound at 1 μM. The protocol:
as §1, §2

Experiment [4] addresses PAK2 (Homo sapiens, UniProt Q13177). Description: Nanosyn in vitro kinase profiling: PAK2. The experiment is classed as biochemical. The following applies: for inhibition at 1 µM: compound at 1 μM. The protocol: as §1, §2
For experiment [5], the system named is HER2 and HER3 signaling in NCI-H1781 cells. The experiment can be described thus: HER2 and HER3 signaling in NCI-H1781 cells (immunoblot). The class given is cell-based. The following applies: NCI-H1781 cells (HER2 kinase domain insertion); 15 min after drug. The protocol:
Immunoblotting. Cells were grown in 6 well plates and treated according to the indicated conditions at which point the media was aspirated, cells were washed with 1 mL of cold PBS, which was then aspirated and the plates were frozen at −80° C. The frozen cells were thawed on the plates in a buffer containing 50 mM Tris pH 7.5, 150 mM NaCl, 1 mM EDTA, and 1% Triton X-100 supplemented with 1× phosphatase (PhoSTOP, Roche) and 1× protease (complete-mini tablets, Roche) inhibitors. Lysates were scraped, transferred to Eppendorf tubes, and cleared by centrifugation at 20,000×g for 20 min at 4° C. The clarified lysates were transferred to chilled, clean tubes, and normalized for protein concentration by Bradford (Bio-Rad). The normalized lysates were diluted with Laemmli loading buffer, and 10 μg of total protein was run on a 4-12% gradient gel (Invitrogen), which was then transferred to […] nitrocellulose (Bio-Rad) and analyzed using the indicated primary antibodies according to the manufacturer's recommendations. Primary antibodies were detected using IRDye secondary antibodies (Li-Cor) according to the manufacturer's recommendations and scanned on an Odyssey imager (Li-Cor). Scanned images were cropped and assembled in Adobe Illustrator 6.
Background: Immunoblotting shows a protein as a band on a membrane.

Molecules are shown by their SMILES.

CSK, sequence (P41240 whole entry, species assumed): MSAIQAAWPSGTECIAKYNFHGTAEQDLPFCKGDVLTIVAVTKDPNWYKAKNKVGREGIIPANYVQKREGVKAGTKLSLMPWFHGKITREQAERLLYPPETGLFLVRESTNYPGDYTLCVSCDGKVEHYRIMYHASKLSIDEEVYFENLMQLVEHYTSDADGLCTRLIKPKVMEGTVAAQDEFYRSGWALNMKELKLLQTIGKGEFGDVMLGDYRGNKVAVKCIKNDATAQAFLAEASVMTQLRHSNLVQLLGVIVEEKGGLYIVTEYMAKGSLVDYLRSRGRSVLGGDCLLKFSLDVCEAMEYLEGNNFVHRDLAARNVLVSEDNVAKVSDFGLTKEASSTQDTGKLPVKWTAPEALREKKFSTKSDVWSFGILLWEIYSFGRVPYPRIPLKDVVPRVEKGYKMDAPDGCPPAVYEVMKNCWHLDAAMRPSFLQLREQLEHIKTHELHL
PAK2, sequence (Q13177 whole entry, species assumed, the tested form may be a part): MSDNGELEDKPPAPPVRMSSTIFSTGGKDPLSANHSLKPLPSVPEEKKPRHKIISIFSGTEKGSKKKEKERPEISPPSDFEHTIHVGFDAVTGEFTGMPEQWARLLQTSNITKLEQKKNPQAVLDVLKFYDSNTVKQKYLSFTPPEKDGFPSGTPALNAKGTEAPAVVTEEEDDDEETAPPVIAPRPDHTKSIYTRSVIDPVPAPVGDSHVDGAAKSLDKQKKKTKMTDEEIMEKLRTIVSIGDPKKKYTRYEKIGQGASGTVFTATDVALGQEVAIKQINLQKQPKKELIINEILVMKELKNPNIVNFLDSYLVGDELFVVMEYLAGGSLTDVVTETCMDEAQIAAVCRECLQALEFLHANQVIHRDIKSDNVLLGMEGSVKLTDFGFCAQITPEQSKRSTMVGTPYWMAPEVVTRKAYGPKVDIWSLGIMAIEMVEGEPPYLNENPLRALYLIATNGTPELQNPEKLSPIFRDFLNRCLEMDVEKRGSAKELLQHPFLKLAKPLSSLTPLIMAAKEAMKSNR
JNK2, sequence (P45984 whole entry, species assumed): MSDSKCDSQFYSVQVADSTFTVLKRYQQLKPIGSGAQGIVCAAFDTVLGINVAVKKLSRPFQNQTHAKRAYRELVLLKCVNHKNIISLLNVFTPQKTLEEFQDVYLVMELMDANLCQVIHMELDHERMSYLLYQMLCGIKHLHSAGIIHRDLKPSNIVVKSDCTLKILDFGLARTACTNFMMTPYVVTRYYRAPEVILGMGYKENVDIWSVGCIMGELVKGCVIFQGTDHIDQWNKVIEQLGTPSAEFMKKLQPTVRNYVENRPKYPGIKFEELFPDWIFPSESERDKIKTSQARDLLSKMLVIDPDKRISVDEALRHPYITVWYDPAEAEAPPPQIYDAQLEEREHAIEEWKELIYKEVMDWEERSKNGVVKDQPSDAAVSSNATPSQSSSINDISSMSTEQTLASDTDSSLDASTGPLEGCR

As a reminder, the inhibition is the drop in the measured response relative to a control, in per cent. With `COc1ccc(-c2ccco2)cc1Nc1ncnc2[nH]nc(-c3ccco3)c12` [compound 2, 3-(furan-2-yl)-N-(5-(furan-2-yl)-2-methoxyphenyl)-1H-pyrazolo[3,4-d]pyrimidin-4-amine], the inhibition at 0.1 µM is 6.96% in experiment [1] (compound at 100 nM), 5.46% in experiment [2] (compound at 100 nM), 1.07% in experiment [3] (compound at 100 nM) and 0.085% in experiment [4] (compound at 100 nM). The inhibition at 1 µM in experiment [1] is 24.8%; in experiment [2], 26.6%; in experiment [3], 6.62%; in experiment [4], 1.07%.
For `COc1ccc(-c2ccoc2)cc1Nc1ncnc2[nH]cc(-c3cc[nH]n3)c12` [compound 3, N-(5-(furan-3-yl)-2-methoxyphenyl)-5-(1H-pyrazol-3-yl)-7H-pyrrolo[2,3-d]pyrimidin-4-amine], in experiment [5], the “inhibition of HER2/HER3 signaling” value is “rapidly and fully inhibited”. Further, the inhibition at 1 µM in experiment [1] is 62%; in experiment [2], 28%; in experiment [3], 7%; in experiment [4] it was 3%.
Take `CS(=O)(=O)CCNCc1ccc(-c2ccc3ncnc(Nc4ccc(OCc5cccc(F)c5)c(Cl)c4)c3c2)o1` [lapatinib]: the “inhibition of HER2/HER3 signaling” value in experiment [5] was “unable to fully inhibit signaling”.
